From the supplement of paper PMC10307832

How the values were obtained:
Test in all cases: relative viability (nuclei count vs DMSO), 5 days (fraction); higher = more cells survive
XMD13-2 + Olaparib = compound: C1CC1C(=O)NC2=NNC3=C2C=CC(=C3)C4=CC(=CC=C4)C(=O)NC5CC5 [XMD13-2] + O=C(c1cc(Cc2n[nH]c(=O)c3ccccc23)ccc1F)N1CCN(C(=O)C2CC2)CC1 [Olaparib] (partner 8 µM)
In short: (§1)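 Five library-drug doses in √10 steps were combined with a fixed anchor-drug dose, or a single drug was given alone, by pin tool to lung cancer cell lines in 1536-well plates the day after seeding. Nuclei were stained and counted after 5 days. Relative viability is the nuclei count in treated wells over that in vehicle wells, taken as the median of duplicate plates.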

ALW-II-49-7 + Vorinostat = compound: Cc1ccc(C(=O)Nc2cccc(C(F)(F)F)c2)cc1Nc1cncc(C(N)=O)c1 [ALW-II-49-7] + O=C(CCCCCCC(=O)Nc1ccccc1)NO [Vorinostat] (partner 1 µM)
In short: as §1

XMD13-2 + Pemetrexed = compound: C1CC1C(=O)NC2=NNC3=C2C=CC(=C3)C4=CC(=CC=C4)C(=O)NC5CC5 [XMD13-2] + Nc1nc2[nH]cc(CCc3ccc(C(=O)N[C@@H](CCC(=O)O)C(=O)O)cc3)c2c(=O)[nH]1 [Pemetrexed] (partner 0.2 µM)
In short: as §1

ALW-II-49-7 + Trametinib = compound: Cc1ccc(C(=O)Nc2cccc(C(F)(F)F)c2)cc1Nc1cncc(C(N)=O)c1 [ALW-II-49-7] + CC(=O)Nc1cccc(-n2c(=O)n(C3CC3)c(=O)c3c(Nc4ccc(I)cc4F)n(C)c(=O)c(C)c32)c1 [Trametinib] (partner 0.02 µM)
In short: as §1

Cell Line | relative viability (XMD13-2 + Olaparib; first compound 0.05 µM) | relative viability (XMD13-2 + Olaparib; first compound 0.1581 µM) | relative viability (XMD13-2 + Olaparib; first compound 0.5 µM) | relative viability (XMD13-2 + Olaparib; first compound 1.581 µM) | relative viability (XMD13-2 + Olaparib; first compound 5 µM) | relative viability (ALW-II-49-7 + Vorinostat; first compound 0.253 µM) | relative viability (ALW-II-49-7 + Vorinostat; first compound 0.8 µM) | relative viability (ALW-II-49-7 + Vorinostat; first compound 2.53 µM) | relative viability (ALW-II-49-7 + Vorinostat; first compound 8 µM) | relative viability (XMD13-2 + Pemetrexed; first compound 0.05 µM) | relative viability (XMD13-2 + Pemetrexed; first compound 0.1581 µM) | relative viability (XMD13-2 + Pemetrexed; first compound 0.5 µM) | relative viability (XMD13-2 + Pemetrexed; first compound 1.581 µM) | relative viability (XMD13-2 + Pemetrexed; first compound 5 µM) | relative viability (ALW-II-49-7 + Trametinib; first compound 0.253 µM) | relative viability (ALW-II-49-7 + Trametinib; first compound 0.8 µM) | relative viability (ALW-II-49-7 + Trametinib; first compound 2.53 µM) | relative viability (ALW-II-49-7 + Trametinib; first compound 8 µM) | relative viability (ALW-II-49-7 + Vorinostat; first compound 0.08 µM) | relative viability (ALW-II-49-7 + Trametinib; first compound 0.08 µM)
LU99A | 0.288 | 0.277 | 0.248 | 0.273 | 0.263 | 0.525 | 0.507 | 0.5 | 0.619 | 0.208 | 0.203 | 0.189 | 0.213 | 0.187 | 0.622 | 0.62 | 0.374 | 0.399 |  | 
NCI-H1944 | 0.454 | 0.402 | 0.408 | 0.55 | 0.414 | 0.613 | 0.497 | 0.478 | 0.377 | 0.74 | 0.573 | 0.622 | 0.875 | 0.642 | 0.427 | 0.418 | 0.339 | 0.405 | 0.659 | 0.405
LK-2 | 0.831 | 0.911 | 0.807 | 0.642 | 0.668 | 0.315 | 0.225 |  | 0.247 | 0.297 | 0.284 | 0.266 | 0.291 | 0.393 | 0.583 | 0.636 |  | 0.479 | 0.327 | 0.963
NCI-H441 | 0.545 | 0.578 | 0.534 | 0.477 | 0.495 | 0.788 | 0.901 | 0.549 | 0.538 | 0.298 | 0.24 | 0.233 | 0.234 | 0.263 | 0.494 | 0.381 | 0.69 | 0.443 | 0.669 | 0.41
NCI-H23 | 0.336 | 0.342 | 0.365 | 0.3 | 0.281 | 0.692 | 0.339 | 0.575 | 0.46 | 0.829 | 0.569 | 0.747 | 0.656 | 0.799 | 0.371 | 0.448 | 0.37 | 0.37 | 0.634 | 0.434
NCI-H647 | 0.622 | 0.435 | 0.545 | 0.602 | 0.234 | 0.642 | 0.599 | 0.321 | 0.349 | 0.173 | 0.168 | 0.179 | 0.164 | 0.134 | 0.475 | 0.453 | 0.441 | 0.239 | 0.539 | 0.434
201T | 0.851 | 0.866 | 0.856 | 0.811 | 0.876 | 1.02 | 0.995 | 1.02 | 0.801 | 0.372 | 0.309 | 0.384 | 0.329 | 0.364 | 0.791 | 0.691 | 0.715 | 0.777 | 0.922 | 0.718
NCI-H1734 | 0.769 | 0.628 | 0.616 | 0.594 | 0.523 | 0.8 | 0.78 | 0.795 | 0.727 | 0.41 | 0.422 | 0.398 | 0.412 | 0.386 | 0.749 | 0.668 | 0.622 | 0.593 | 0.763 | 0.641
NCI-H596 | 0.703 | 0.729 | 0.738 | 0.704 | 0.769 | 0.574 | 0.586 | 0.683 | 0.456 | 0.478 | 0.454 | 0.518 | 0.456 | 0.492 | 0.786 | 0.769 | 0.791 | 0.912 | 0.488 | 0.684
